Measured values: patent publication US10456404B2, “Targeting cGMP-related phosphodiesterases to reduce cyst formation in cystic kidney disease, and related materials and methods” (Indiana University Research and Technology Corporation, priority 2015, dated 2019)
Like-named read-outs stand apart in the source and are kept apart here.

How the values were obtained:
[1] = target: human PDE9 (Homo sapiens, UniProt O76083); conditions: cited from earlier work
[2] = test system: other PDEs; conditions: cited from earlier work
[3] = target: PDE5 (Homo sapiens, UniProt O76074); conditions: cited from earlier work
[4] = test system: cGMP; conditions: in vivo; cited from earlier work
[5] = test system: preclinical cognition models; conditions: in vivo; cited from earlier work
[6] = test system: amyloid precursor protein overexpressing transgenic mice; conditions: cited from earlier work
[7] = test system: PDE6; conditions: cited from earlier work
[8] = test system: Telomerase immortalized polycystic kidney cells; experiment: cyst formation by immortalized polycystic kidney cells in 3D forskolin-supplemented Matrigel culture; assay type: cell-based, human
Description: Telomerase immortalized polycystic kidney cells, as described in Herbert et al. (PLoS One (2013), 8(1): e55191; which is hereby incorporated by reference in its entirety), were used to test the effect of sildenafil citrate on renal cyst growth. Cells from polycystic kidneys removed from patients for medically indicated reasons, removed from any research program, were obtained. The cells were obtained from the pathology laboratory. Cyst tissue was microdissected from the kidneys, and cells were isolated and grown in primary culture. The cells were then immortalized using retroviral techniques well known in the art. Following confirmation of an immortal phenotype, it was established that the polycystic cyst epithelial cells formed cyst structures when grown in 3D forskolin-supplemented Matrigel culture. Immortalized polycystic kidney cells were treated with microgram dosages of sildenafil citrate of 4 μg/ml, 2 μg/ml, and 1 μg/ml. […] Matched controls were sham-treated with vehicle but no drug. […] Dosages tested were consistent with the range of serum drug levels that occur when the drug is prescribed for erectile dysfunction.

[9] = test system: Telomerase immortalized polycystic kidney cells; experiment: as above; assay type: cell-based, human; conditions: for average cyst area vs vehicle sham-treated matched control: FIG. 1

Chain of human PDE9 (O76083 whole entry): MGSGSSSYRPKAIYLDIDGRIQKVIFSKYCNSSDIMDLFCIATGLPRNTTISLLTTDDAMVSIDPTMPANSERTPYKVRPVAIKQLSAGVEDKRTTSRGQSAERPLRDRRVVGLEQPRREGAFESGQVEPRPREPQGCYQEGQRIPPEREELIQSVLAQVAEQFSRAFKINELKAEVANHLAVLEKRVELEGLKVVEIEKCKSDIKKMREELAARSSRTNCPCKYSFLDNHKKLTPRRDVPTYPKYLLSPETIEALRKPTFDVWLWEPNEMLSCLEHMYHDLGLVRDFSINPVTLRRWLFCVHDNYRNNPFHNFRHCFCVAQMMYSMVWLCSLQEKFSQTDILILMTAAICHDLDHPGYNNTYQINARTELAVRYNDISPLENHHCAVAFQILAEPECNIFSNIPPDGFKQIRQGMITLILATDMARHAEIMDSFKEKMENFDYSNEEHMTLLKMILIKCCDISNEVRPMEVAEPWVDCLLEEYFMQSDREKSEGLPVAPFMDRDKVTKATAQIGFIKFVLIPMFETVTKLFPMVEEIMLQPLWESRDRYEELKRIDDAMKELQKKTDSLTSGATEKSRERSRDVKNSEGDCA

## C[C@H](Cc1nc2c(cnn2-c2ccccc2Cl)c(=O)[nH]1)C(F)(F)F [BAY 73-6691, 1-(2-chlorophenyl)-6-[(2R)-3,3,3-trifluoro-2-methylpropyl]-1,5-dihydro-4H-pyrazolo[3,4-d]pyrimidine-4-one]
[1]
  inhibition of human PDE9 activity in vitro: selectively inhibit
[2]
  activity against other PDEs: only moderate activity

## CCCc1nc(C)c2c(=O)[nH]c(-c3cc(S(=O)(=O)N4CCNCC4)ccc3OCC)nn12 [M1]
[3]; parent drug vardenafil
  PDE5 inhibition potency relative to the parent drug: reduced potency

## C[C@@H]1CN(Cc2ncccn2)C[C@H]1c1nc2c(cnn2C2CCOCC2)c(=O)[nH]1 [PF-04447943, 6-[(3S,4S)-4-methyl-1-(pyrimidin-2-ylmethyl)pyrrolidin-3-yl]-1-(tetrahydro-2H-pyran-4-yl)-1,5-dihydro-4H-pyrazolo[3,4-d]pyrimidin-4-one]
[4]
  cGMP in brain and cerebrospinal fluid: elevates
[5]
  memory in preclinical cognition models: improves
  synaptic plasticity: enhances
[6]
  decreases in dendritic spine density: prevents

## CCCc1nn(C)c2c(=O)[nH]c(-c3cc(S(=O)(=O)N4CCNCC4)ccc3OCC)nc12 [UK-103,320]
[3]; parent drug sildenafil
  PDE5 inhibition potency relative to the parent drug: approximately 50%

## CCCc1nc(C)c2c(=O)nc(-c3cc(S(=O)(=O)N4CCN(CC)CC4)ccc3OCC)[nH]n12 [Vardenafil, 2-[2-ethoxy-5-(4-ethylpiperazin-1-yl)sulfonylphenyl]-5-methyl-7-propyl-1H-imidazo[5,1-f][1,2,4]triazin-4-one]
[7]
  PDE6 inhibition: potent PDE6 inhibitor

## CCCOc1ccccc1-c1nc2[nH][nH]nc-2c(=O)n1 [Zaprinast, 5-(2-propoxyphenyl)-2,3-dihydrotriazolo[4,5-d]pyrimidin-7-one]
[7]
  PDE6 versus PDE5 inhibition potency: inhibit PDE6 more potently than PDE5

## CCCc1nn(C)c2c(=O)[nH]c(-c3cc(S(=O)(=O)N4CCN(C)CC4)ccc3OCC)nc12.O=C(O)CC(O)(CC(=O)O)C(=O)O [sildenafil citrate, 1-[[3-(6,7-dihydro-1-methyl-7-oxo-3-propyl-1H-pyrazolo[4,3-d]pyrimidin-5-yl)-4-ethoxyphenyl]sulfonyl]-4-methylpiperazine citrate]
[8]; 1 μg/ml, p<0.01
  Average cyst size compared to control: significantly decreased
[8]; 1000 ng/ml, p<0.01, FIG. 1
  average cyst area vs vehicle sham-treated matched control: significantly reduced
[8]; 2 μg/ml, p<0.01
  Average cyst size compared to control: significantly decreased
[8]; 4 μg/ml, p<1 E−6
  Average cyst size compared to control: significantly decreased
[9]; 250 ng/ml, p<1.05 E−8
  average cyst area vs vehicle sham-treated matched control: significantly reduced
[9]; 500 ng/ml, p<0.01
  average cyst area vs vehicle sham-treated matched control: significantly reduced
[9]; 250, 500, 1000 ng/ml
  dose response of cyst area reduction: No dose response
[9]; 250, 500, 1000 ng/ml, FIG. 2
  large cyst formation (cyst structures of greater than 150μ^2), frequency distribution: completely inhibited

## CCCc1nn(C)c2c(=O)[nH]c(-c3cc(S(=O)(=O)N4CCN(C)CC4)ccc3OCC)nc12 [sildenafil, 5[2-ethoxy-5-(4-methyl-1-piperazinyl-sulphonyl)phenyl]-1-methyl-3-n-propyl-1,6-dihydro-7H-pyrazolo[4,3-d]pyrimidin-7-one]
[8]; 1:250 dilution of drug in vehicle from a stock, FIG. 3B
  large cysts in photographs: No large cysts were observed
[8]; 1:500 dilution of drug in vehicle from a stock, FIG. 4B
  large cysts in photographs: No large cysts were observed
[8]; 1:1000 dilution of drug in vehicle from a stock, FIG. 5B
  large cysts in photographs: No large cysts were observed
